The target in this test is Histone acetyltransferase KAT2B (Homo sapiens, UniProt Q92831). The test can be described thus: Binding affinity to human partial length PCAF bromodomain expressed in mammalian expression system by BROMOscan method.

SMILES strings stand for the structures.

Histone acetyltransferase KAT2B, sequence (Q92831 whole entry): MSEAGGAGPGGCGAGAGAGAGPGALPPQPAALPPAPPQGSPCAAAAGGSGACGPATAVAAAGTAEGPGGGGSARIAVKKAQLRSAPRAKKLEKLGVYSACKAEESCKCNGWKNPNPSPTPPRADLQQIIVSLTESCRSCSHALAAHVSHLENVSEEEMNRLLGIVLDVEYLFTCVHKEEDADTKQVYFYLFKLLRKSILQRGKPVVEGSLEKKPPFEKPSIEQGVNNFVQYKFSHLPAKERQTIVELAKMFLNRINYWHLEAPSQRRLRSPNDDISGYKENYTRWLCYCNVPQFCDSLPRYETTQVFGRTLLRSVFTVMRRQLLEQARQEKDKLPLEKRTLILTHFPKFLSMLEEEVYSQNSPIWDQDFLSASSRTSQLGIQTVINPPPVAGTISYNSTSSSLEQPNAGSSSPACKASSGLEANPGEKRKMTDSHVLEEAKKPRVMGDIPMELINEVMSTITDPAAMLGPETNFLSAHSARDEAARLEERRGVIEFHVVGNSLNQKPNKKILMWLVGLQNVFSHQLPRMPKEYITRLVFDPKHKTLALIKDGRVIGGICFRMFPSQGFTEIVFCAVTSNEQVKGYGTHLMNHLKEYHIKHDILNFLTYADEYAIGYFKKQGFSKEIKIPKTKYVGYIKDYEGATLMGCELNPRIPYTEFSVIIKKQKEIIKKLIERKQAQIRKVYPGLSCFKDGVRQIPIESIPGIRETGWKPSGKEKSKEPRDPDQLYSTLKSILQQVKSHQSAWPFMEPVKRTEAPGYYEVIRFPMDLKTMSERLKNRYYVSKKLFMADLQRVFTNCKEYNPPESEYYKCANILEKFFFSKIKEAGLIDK

In turn, `CN1C[C@H](Nc2cnn(C)c(=O)c2Br)C[C@H](c2ccccc2)C1` gave a Ki of 1.26 nM.

A word on the Ki: it is the equilibrium dissociation constant of an inhibitor or competing ligand from its target. Low values mean tighter binding, high ones weaker binding.

Values taken from BindingDB's records for doi:10.1021/acs.jmedchem.6b01566 (Glaxosmithkline, 2017).
